Test results from patent US20030203944A1, “Novel thiocarbamic acid derivatives and the pharmaceutical compositions containing the same” (priority 2000, published 2003).

Experiments:
Male ICR mice [1] = experiment: Analgesic activity test: mouse writhing test by inducing with phenyl-p-quinone; format: in vivo; conditions: writhes vs control
Method: (3) Analgesic Activity Test: Mouse Writhing Test by Inducing with Phenyl-p-quinone
Male ICR mice (mean body weight 25 g) were maintained in a controlled lighting environment (12 h on/12 h off) for experiment. Animals received an intraperitoneal injection of 0.3 ml of the chemical irritant phenyl-p-quinone (dissolved in saline containing 5% ethanol to be a dose of 4.5 mg/kg) and 6 min later, the number of abdominal constrictions was counted in the subsequent 6 min period. Animals (10 animals/group) received 0.2 ml of test compounds solution in vehicle of ethanol/Tween 80/saline (10/10/80) intraperitoneally 30 min before the injection of phenyl-p-quinone. A reduction in the number of writhes responding to the test drug compound relative to the number responding in saline control group was considered to be indicative of an analgesic effect. Analgesic effect was calculated by % inhibition equation (% inhibition=(C−T)/C×100), wherein C and T represent the number of writhes in control and compound-treated group, respectively (Table 2).

[2] = biological target: T1, cation channel connected to vanilloid receptor (Rattus norvegicus, UniProt O35433); experiment: Channel activity assay (patch clamp test); format: cell-based; design: key: NR: no response; +: antagonistic potency equal to capsazepine; ++: antagonistic potency 10 times higher than capsazepine; conditions: potency relative to capsazepine
T1 construct: endogenous in cells
Method: (2) Channel Activity Assay
Antagonistic activities of test compounds were assayed based on electrical change of cation channel connected to vanilloid receptor and experiments were conducted according to reference method (Oh et al., 1996, J. Neuroscience 16, pp1659-1667) (Table 1).

Male ICR mice [3] = experiment: Antiinflammatory activity test: TPA-induced mouse ear edema test; format: in vivo; conditions: dose 1 mg/ear topical; ear weight increase 24 h after TPA
Method: (4) Antiinflammatory Activity Test: TPA (12-O-tetradecanoylphorbol 13-acetate)-induced Mouse Ear Edema Test
Male ICR mice (body weight 25-30 g), 10 animals/group, were treated topically on the right ear with 30 μl of TPA (2.5 μg) solution in acetone and after 15 min, […] of acetone or test compound solution in acetone was applied topically. After six hours, an identical treatment was applied again. After twenty four hours following the treatment of TPA, the animals were sacrificed and ear tissue was dissected using 6 mm-diameter punch. Ear tissue dissected were weighed to the nearest 0.1 mg on an electrobalance. The increased weight of the tissue compared to control group was considered as an index of inflammation. The percent inhibition is defined by the following equation:
% inhibition=(C−T)/C×100, wherein C and T represent an increase of ear weight in TPA-treated and ThA+drug-treated group, respectively.

[4] = dose 10 mg/kg intraperitoneally 30 min before phenyl-p-quinone

T1 sequence (O35433 whole entry): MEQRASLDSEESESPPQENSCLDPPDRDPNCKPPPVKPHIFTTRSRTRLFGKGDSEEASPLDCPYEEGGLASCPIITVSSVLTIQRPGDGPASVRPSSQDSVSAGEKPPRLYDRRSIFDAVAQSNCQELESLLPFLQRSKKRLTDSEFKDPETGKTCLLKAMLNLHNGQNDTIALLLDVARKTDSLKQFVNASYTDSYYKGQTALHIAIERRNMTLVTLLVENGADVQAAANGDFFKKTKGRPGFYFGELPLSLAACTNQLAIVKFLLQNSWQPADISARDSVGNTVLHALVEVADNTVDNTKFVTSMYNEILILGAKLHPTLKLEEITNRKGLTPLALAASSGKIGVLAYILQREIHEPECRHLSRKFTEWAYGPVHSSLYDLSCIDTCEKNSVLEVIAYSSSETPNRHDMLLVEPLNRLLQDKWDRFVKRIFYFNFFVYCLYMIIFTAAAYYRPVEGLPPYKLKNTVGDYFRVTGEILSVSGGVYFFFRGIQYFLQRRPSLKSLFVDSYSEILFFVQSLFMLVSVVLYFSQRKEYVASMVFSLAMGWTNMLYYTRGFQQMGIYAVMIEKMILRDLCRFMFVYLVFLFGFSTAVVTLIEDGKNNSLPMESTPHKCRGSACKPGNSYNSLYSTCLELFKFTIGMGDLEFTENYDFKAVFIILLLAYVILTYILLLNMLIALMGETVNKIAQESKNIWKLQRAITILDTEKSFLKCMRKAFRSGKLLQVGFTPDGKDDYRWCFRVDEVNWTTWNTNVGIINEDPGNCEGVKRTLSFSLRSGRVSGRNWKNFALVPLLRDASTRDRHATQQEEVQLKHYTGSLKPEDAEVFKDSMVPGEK

SMILES | Patch clamp Test (antagonistic activities) [2] | Analgesic effect (% Inhibition) (Male ICR mice [1]; [4]) | Anti-inflammatory effect (% Inhibition) (Male ICR mice [3]) | Analgesic effect (% Inhibition) (Male ICR mice [1]; dose 1 mg/kg intraperitoneally 30 min before phenyl-p-quinone)
COc1cc(OCC2CO2)ccc1O[Si](C)(C)C(C)(C)C (stereo not shown) [Example 60, t-butyl-(2-methoxy-4-oxiranylmethoxy-phenoxy)-dimethyl-silane] | – | – | 45% | 45%
CCC(COc1ccc(NS(C)(=O)=O)c(C(F)(F)F)c1)OC(=S)NCCc1ccccc1 (stereo not shown) [Example 83] | + | – | – | –

More lines, main results first:

Patch clamp Test (antagonistic activities) [2] | SMILES | Analgesic effect (% Inhibition) (Male ICR mice [1]; [4]) | Anti-inflammatory effect (% Inhibition) (Male ICR mice [3]) | Analgesic effect (% Inhibition) (Male ICR mice [1]; dose 1 mg/kg intraperitoneally 30 min before phenyl-p-quinone)
+ | COc1cc(CCC(CCc2ccccc2)OC(=S)NCCc2ccccc2)ccc1O (stereo not shown) [Example 5, Phenethyl Thiocarbamic Acid O-[3-(4-hydroxy-3-methoxyphenyl)-1-phenethylpropyl] Ester] | 44% | 33% | –
+ | COc1cc(CCC(CCc2ccc(C(F)(F)F)cc2)OC(=S)NCCc2ccccc2)ccc1O (stereo not shown) [Example 54] | 64% | 40% | –
+ | COc1cc(CCC(C)(C)OC(=S)NCCc2ccccc2)ccc1O [Example 56] | – | – | –
